Source: patent publication US20240308996A1, “PYRIDOPYRIDINES AND DERIVATIVES THEREOF AS SELECTIVE KINASE INHIBITORS” (University of Sharjah, priority 2023, published 2024)

Experiments:
Type in all cases: cell-based
K-562 = test: NCI-60 cell line panel: K-562; parameters: TGI: unit not given here; conditions: for IC50: Homo sapiens, K562, Leukemia; for TGI: Leukemia, total growth inhibition
Procedure: (§1) It was carried out at the NCI, Bethesda, MD, USA, utilizing their standard protocol.

HOP-62 = test: NCI-60 cell line panel: HOP-62; conditions: Non-Small Cell Lung Cancer; for IC50: Homo sapiens; for TGI: total growth inhibition
Procedure: as §1

HOP-92 = test: NCI-60 cell line panel: HOP-92; parameters: TGI: unit not given here; conditions: Non-Small Cell Lung Cancer; for IC50: Homo sapiens; for TGI: total growth inhibition
Procedure: as §1

NCI-H322M = test: NCI-60 cell line panel: NCI-H322M; conditions: Non-Small Cell Lung Cancer; for IC50: Homo sapiens; for TGI: total growth inhibition
Procedure: as §1

NCI-H460 = test: NCI-60 cell line panel: NCI-H460; conditions: Non-Small Cell Lung Cancer; for IC50: Homo sapiens; for TGI: total growth inhibition
Procedure: as §1

HT29 = test: NCI-60 cell line panel: HT29; conditions: for TGI: Colon Cancer, total growth inhibition; for IC50: Homo sapiens, HT-29, Colon Cancer
Procedure: as §1

SF-268 = test: NCI-60 cell line panel: SF-268; conditions: CNS Cancer; for TGI: total growth inhibition; for IC50: Homo sapiens
Procedure: as §1

SNB-75 = test: NCI-60 cell line panel: SNB-75; parameters: TGI: unit not given here; conditions: CNS Cancer; for TGI: total growth inhibition; for IC50: Homo sapiens
Procedure: as §1

LOX IMVI = test: NCI-60 cell line panel: LOX IMVI; conditions: Melanoma; for IC50: Homo sapiens; for TGI: total growth inhibition
Procedure: as §1

MALME-3M = test: NCI-60 cell line panel: MALME-3M; conditions: Melanoma; for IC50: Homo sapiens; for TGI: total growth inhibition, in µM (unit assumed)
Procedure: as §1

MDA-MB-435 = test: NCI-60 cell line panel: MDA-MB-435; parameters: TGI: unit not given here; conditions: Melanoma; for IC50: Homo sapiens; for TGI: total growth inhibition
Procedure: as §1

SK-MEL-5 = test: NCI-60 cell line panel: SK-MEL-5; conditions: Melanoma; for IC50: Homo sapiens; for TGI: total growth inhibition
Procedure: as §1

UACC-257 = test: NCI-60 cell line panel: UACC-257; conditions: Melanoma; for IC50: Homo sapiens; for TGI: total growth inhibition
Procedure: as §1

UACC-62 = test: NCI-60 cell line panel: UACC-62; conditions: Melanoma; for IC50: Homo sapiens; for TGI: total growth inhibition
Procedure: as §1

OVCAR-8 = test: NCI-60 cell line panel: OVCAR-8; conditions: Ovarian Cancer; for IC50: Homo sapiens; for TGI: total growth inhibition, in µM (unit assumed)
Procedure: as §1

NCI/ADR-RES = test: NCI-60 cell line panel: NCI/ADR-RES; parameters: TGI: unit not given here; conditions: Ovarian Cancer; for IC50: Homo sapiens; for TGI: total growth inhibition
Procedure: as §1

SK-OV-3 = test: NCI-60 cell line panel: SK-OV-3; conditions: Ovarian Cancer; for IC50: Homo sapiens; for TGI: total growth inhibition
Procedure: as §1

A498 = test: NCI-60 cell line panel: A498; conditions: Renal Cancer; for IC50: Homo sapiens; for TGI: total growth inhibition
Procedure: as §1

ACHN = test: NCI-60 cell line panel: ACHN; conditions: Renal Cancer; for IC50: Homo sapiens; for TGI: total growth inhibition
Procedure: as §1

CAKI-1 = test: NCI-60 cell line panel: CAKI-1; parameters: TGI: unit not given here; conditions: Renal Cancer; for IC50: Homo sapiens; for TGI: total growth inhibition
Procedure: as §1

SN12C = test: NCI-60 cell line panel: SN12C; conditions: Renal Cancer; for IC50: Homo sapiens; for TGI: total growth inhibition
Procedure: as §1

TK-10 = test: NCI-60 cell line panel: TK-10; conditions: Renal Cancer; for IC50: Homo sapiens; for TGI: total growth inhibition
Procedure: as §1

PC-3 = test: NCI-60 cell line panel: PC-3; conditions: Prostate Cancer; for IC50: Homo sapiens; for TGI: total growth inhibition
Procedure: as §1

DU-145 = test: NCI-60 cell line panel: DU-145; conditions: Prostate Cancer; for IC50: Homo sapiens; for TGI: total growth inhibition
Procedure: as §1

T-47D = test: NCI-60 cell line panel: T-47D; conditions: Breast Cancer; for TGI: total growth inhibition; for IC50: Homo sapiens, T47D
Procedure: as §1

MDA-MB-468 = test: NCI-60 cell line panel: MDA-MB-468; conditions: Breast Cancer; for TGI: total growth inhibition; for IC50: Homo sapiens
Procedure: as §1

Hep3B = test: MTT assay, Hep3B HCC cell line; conditions: Homo sapiens, 48 h, mean of triplicate assays ± SEM
Procedure: (§2) Two HCC cell lines (Hep3B and HepG2) were used for screening the antiproliferative activity of the synthesized compounds. The cell lines were obtained from the European Collection of Cell Cultures (ECACC, UK) and maintained in Dulbecco's Modified Eagle Medium (DMEM: Sigma-Aldrich) supplemented with 10% fetal bovine serum (FBS) and 1% penicillin/streptomycin and incubated at 37° C. in a 5% CO2 air atmosphere. In addition, WI-38 normal cell line was used to investigate the safety of these compounds.
MTT assay was conducted to calculate the IC50 of the compounds following the reported procedure . Briefly, the cells were seeded in 96-well tissue culture plates with a density of 5×10^4 cells/well and incubated overnight at 37° C. in a 5% CO2 air atmosphere. […] DMSO was used as a negative control. After 48 h, the media were aspirated, and replaced with media containing 0.5 mg/mL of MTT tetrazolium dye (Sigma-Aldrich) for 2 h at 37° C. Finally, the media were removed and 200 μL of DMSO was added to solubilize the formazan crystals. Absorbance was then measured at 570 nm using Varioskan Flash multimode plate reader (Thermo Scientific, Massachusetts, USA).

[1] = tested on: hepatocellular carcinoma cell lines; test: Screening against HCC cell lines
Procedure: The target compounds were tested against hepatocellular carcinoma cell lines. Compounds 1j. 13a. 13b. 13c. […] The mean inhibition percentage values are illustrated in Table 9.
as §2
MTT assay was conducted to calculate the IC50 of the compounds following the reported procedure . Briefly, the cells were seeded in 96-well tissue culture plates with a density of 5×10^4 cells/well and incubated overnight at 37° C. in a 5% CO2 air atmosphere. After that, cells were treated with the newly synthesized compounds or sorafenib as a positive control. DMSO was used as a negative control. After 48 h, the media were aspirated, and replaced with media containing 0.5 mg/mL of MTT tetrazolium dye (Sigma-Aldrich) for 2 h at 37° C. Finally, the media were removed and 200 μL of DMSO was added to solubilize the formazan crystals. Absorbance was then measured at 570 nm using Varioskan Flash multimode plate reader (Thermo Scientific, Massachusetts, USA).

SMILES: CCN1CCN(c2ccc(NC(=O)Nc3ccc(-c4cc(C(=O)NC(C)C)c5ncccc5n4)cc3)cc2C(F)(F)F)CC1 [Compound 13f, 2-(4-(3-(4-(4-Ethylpiperazin-1-yl)-3-(trifluoromethyl)phenyl)ureido)phenyl)-N-isopropyl-1,5-naphthyridine-4-carboxamide]
- IC50 (K-562): 1 µM
- TGI (K-562): >34.5
- IC50 (HOP-62): 3.83 µM
- TGI (HOP-62): 8.89 µM
- IC50 (HOP-92): 3.14 µM
- TGI (HOP-92): 8.29
- IC50 (NCI-H322M): 1.85 µM
- TGI (NCI-H322M): 7.24 µM
- IC50 (NCI-H460): 0.62 µM
- TGI (NCI-H460): 1.18 µM
- TGI (HT29): 1.32 µM
- IC50 (HT29): 0.67 µM
- TGI (SF-268): 10.9 µM
- IC50 (SF-268): 3.56 µM
- TGI (SNB-75): 5.14
- IC50 (SNB-75): 0.98 µM
- IC50 (LOX IMVI): 0.56 µM
- TGI (LOX IMVI): 1.05 µM
- IC50 (MALME-3M): 0.58 µM
- TGI (MALME-3M): 1.05
- IC50 (MDA-MB-435): 0.65 µM
- TGI (MDA-MB-435): 1.31
- IC50 (SK-MEL-5): 1.41 µM
- TGI (SK-MEL-5): 5.28 µM
- IC50 (UACC-257): 3.45 µM
- TGI (UACC-257): 8.11 µM
- IC50 (UACC-62): 3.99 µM
- TGI (UACC-62): 8.28 µM
- IC50 (OVCAR-8): 5.69 µM
- TGI (OVCAR-8): 17.5
- IC50 (NCI/ADR-RES): 3.66 µM
- TGI (NCI/ADR-RES): 10.00
- IC50 (SK-OV-3): 5.33 µM
- TGI (SK-OV-3): 1.08 µM
- IC50 (A498): 5.11 µM
- TGI (A498): 9.7 µM
- IC50 (ACHN): 1.02 µM
- TGI (ACHN): 3.47 µM
- IC50 (CAKI-1): 0.8 µM
- TGI (CAKI-1): 2.08
- IC50 (SN12C): 0.67 µM
- TGI (SN12C): 1.38 µM
- IC50 (TK-10): 1.35 µM
- TGI (TK-10): 4.87 µM
- IC50 (PC-3): 0.76 µM
- TGI (PC-3): 2.1 µM
- IC50 (DU-145): 0.75 µM
- TGI (DU-145): 1.58 µM
- TGI (T-47D): 8.74 µM
- IC50 (T-47D): 1.93 µM
- TGI (MDA-MB-468): 1.85 µM
- IC50 (MDA-MB-468): 0.77 µM
- IC50 (Hep3B): 1.09 ± 0.14 µM
- inhibition activity against hepatocellular carcinoma cell lines compared with sorafenib [1]: higher inhibition activity than sorafenib

SMILES: CNC(=O)c1cc(-c2ccc(NC(=O)Nc3ccc(N4CCN(C)CC4)c(C(F)(F)F)c3)cc2)nc2cccnc12 [Compound 13b, N-Methyl-2-(4-(3-(4-(4-methylpiperazin-1-yl)-3-(trifluoromethyl)phenyl)ureido)phenyl)-1,5-naphthyridine-4-carboxamide]
- IC50 (K-562): 2.12 µM
- TGI (K-562): 5.35
- IC50 (HOP-62): 16.4 µM
- TGI (HOP-62): 32.2 µM
- IC50 (HOP-92): 6.54 µM
- TGI (HOP-92): 100
- IC50 (NCI-H322M): 15.6 µM
- TGI (NCI-H322M): 29.8 µM
- IC50 (NCI-H460): 3.19 µM
- TGI (NCI-H460): 10.2 µM
- TGI (HT29): 4.19 µM
- IC50 (HT29): 1.92 µM
- TGI (SF-268): 39.2 µM
- IC50 (SF-268): 17.5 µM
- TGI (SNB-75): 28.4
- IC50 (SNB-75): 14.9 µM
- IC50 (LOX IMVI): 0.66 µM
- TGI (LOX IMVI): 24.5 µM
- IC50 (MALME-3M): 1.68 µM
- TGI (MALME-3M): 3.21
- IC50 (MDA-MB-435): 1.75 µM
- TGI (MDA-MB-435): 3.27
- IC50 (SK-MEL-5): 17.5 µM
- TGI (SK-MEL-5): 31.7 µM
- IC50 (UACC-257): 15.3 µM
- TGI (UACC-257): 28.8 µM
- IC50 (UACC-62): 18.4 µM
- TGI (UACC-62): 33.9 µM
- IC50 (OVCAR-8): 17.4 µM
- TGI (OVCAR-8): 35.4
- IC50 (NCI/ADR-RES): 14.2 µM
- TGI (NCI/ADR-RES): 45.4
- IC50 (SK-OV-3): 18.5 µM
- TGI (SK-OV-3): 34.7 µM
- IC50 (A498): ≥ 100 µM
- TGI (A498): 100 µM
- IC50 (ACHN): 15.5 µM
- TGI (ACHN): 28.9 µM
- IC50 (CAKI-1): 16.1 µM
- TGI (CAKI-1): 29.6
- IC50 (SN12C): 16.7 µM
- TGI (SN12C): 34.7 µM
- IC50 (TK-10): 18.5 µM
- TGI (TK-10): 33.2 µM
- IC50 (PC-3): 15.1 µM
- TGI (PC-3): 30.1 µM
- IC50 (DU-145): 17.6 µM
- TGI (DU-145): 35.6 µM
- TGI (T-47D): 43.4 µM
- IC50 (T-47D): 17 µM
- TGI (MDA-MB-468): 32.9 µM
- IC50 (MDA-MB-468): 14.8 µM
- IC50 (Hep3B): 2.32 ± 0.02 µM
- inhibition activity against hepatocellular carcinoma cell lines compared with sorafenib [1]: higher inhibition activity than sorafenib
